PubChem BioAssay AID248 (DTP/NCI, 2004)
“And” between values parts separate entries of the source, which are not always exact repeats. Equal values may be shown once. Inconclusive results and toxic doses are left out. Cut-off read from the data, not from the text of the source: active = T/C of 150% or more; inactive = T/C below 125%.

Test system: L1210 leukemia ip in BDF1 mice, survival T/C
Assay: NCI In Vivo Anticancer Drug Screen. Data for tumor model L1210 Leukemia (intraperitoneal) in B6D2F1 (BDF1) mice
Settings: endpoint: mean survival time, higher = longer survival
Summary of the method: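 Each compound was tested against a transplantable tumor grown in mice. The endpoint was survival, with treated animals benchmarked against vehicle controls as a simple ratio.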

[1] = dose: 100.0 mg/kg/injection, schedule: Q04DX003 (ip), vehicle: saline
[2] = dose: 200.0 mg/kg/injection, schedule: Q04DX003 (ip), vehicle: saline
[3] = dose: 400.0 mg/kg/injection, schedule: Q04DX003 (ip), vehicle: saline
[4] = dose: 50.0 mg/kg/injection, schedule: Q04DX003 (ip), vehicle: saline
[5] = dose: 100.0 mg/kg/injection, schedule: Q04DX003 (ip), vehicle: saline with Tween-80
[6] = dose: 200.0 mg/kg/injection, schedule: Q04DX003 (ip), vehicle: saline with Tween-80
[7] = dose: 400.0 mg/kg/injection, schedule: Q04DX003 (ip), vehicle: saline with Tween-80
[8] = dose: 50.0 mg/kg/injection, schedule: Q01DX009 (ip), vehicle: Klucel (hydroxypropylcellulose) (HPC)
[9] = dose: 100.0 mg/kg/injection, schedule: Q01DX009 (ip), vehicle: Klucel (hydroxypropylcellulose) (HPC)
[10] = dose: 100.0 mg/kg/injection, schedule: Q04DX003 (ip), vehicle: Klucel (hydroxypropylcellulose) (HPC)
[11] = dose: 200.0 mg/kg/injection, schedule: Q01DX009 (ip), vehicle: Klucel (hydroxypropylcellulose) (HPC)
[12] = dose: 200.0 mg/kg/injection, schedule: Q04DX003 (ip), vehicle: Klucel (hydroxypropylcellulose) (HPC)
[13] = dose: 400.0 mg/kg/injection, schedule: Q01DX009 (ip), vehicle: Klucel (hydroxypropylcellulose) (HPC)
[14] = dose: 400.0 mg/kg/injection, schedule: Q04DX003 (ip), vehicle: Klucel (hydroxypropylcellulose) (HPC)
[15] = dose: 100.0 mg/kg/injection, schedule: Q04DX002 (ip), vehicle: saline with Tween-80
[16] = dose: 200.0 mg/kg/injection, schedule: Q04DX002 (ip), vehicle: saline with Tween-80
[17] = dose: 400.0 mg/kg/injection, schedule: Q04DX002 (ip), vehicle: saline with Tween-80

Measured: T/C

Cn1c(=S)[nH]c2cc(Cl)c(Cl)cc21
inactive: [1] 100 % of control | [2] 105 % of control | [3] 97 % of control

CC1(C)CC[N+]1(C)C
inactive: dose: 11.0 mg/kg/injection, schedule: Q04DX003 (ip), vehicle: saline 98 % of control and 104 % of control | dose: 12.0 mg/kg/injection, schedule: Q04DX003 (ip), vehicle: saline 96 % of control | dose: 16.0 mg/kg/injection, schedule: Q04DX003 (ip), vehicle: saline 94 % of control and 107 % of control | dose: 25.0 mg/kg/injection, schedule: Q04DX003 (ip), vehicle: saline 94 % of control and 104 % of control | dose: 40.0 mg/kg/injection, schedule: Q04DX003 (ip), vehicle: saline 102 % of control | [4] 110 % of control | dose: 60.0 mg/kg/injection, schedule: Q04DX003 (ip), vehicle: saline 92 % of control

Cc1cc(C)c(CS)c(C)c1
inactive: dose: 25.0 mg/kg/injection, schedule: Q04DX002 (ip), vehicle: Klucel (hydroxypropylcellulose) (HPC) 98 % of control | dose: 50.0 mg/kg/injection, schedule: Q04DX002 (ip), vehicle: Klucel (hydroxypropylcellulose) (HPC) 95 % of control | dose: 100.0 mg/kg/injection, schedule: Q04DX002 (ip), vehicle: Klucel (hydroxypropylcellulose) (HPC) 98 % of control | dose: 200.0 mg/kg/injection, schedule: Q04DX002 (ip), vehicle: Klucel (hydroxypropylcellulose) (HPC) 95 % of control | dose: 400.0 mg/kg/injection, schedule: Q04DX002 (ip), vehicle: Klucel (hydroxypropylcellulose) (HPC) 100 % of control

COC1OCC(N=[N+]=[N-])C(OC)C1O (stereo unspecified)
inactive: [5] 100 % of control | [6] 100 % of control | [7] 98 % of control

Cc1ccc(C2NC(=O)c3ccccc3N2)c(C)c1 (stereo unspecified)
inactive: [8] 100 % of control | [9] 94 % of control and 99 % of control | [10] 103 % of control | dose: 150.0 mg/kg/injection, schedule: Q01DX009 (ip), vehicle: Klucel (hydroxypropylcellulose) (HPC) 93 % of control | [11] 106 % of control | [12] 95 % of control | [13] 96 % of control | [14] 95 % of control

CN(C)S(=O)(=O)c1ccc(NC(=O)C(Cl)(Cl)Cl)cc1
inactive: dose: 100.0 mg/kg/injection, schedule: Q01DX001 (ip), vehicle: other 104 % of control | [9] 94 % of control | dose: 100.0 mg/kg/injection, schedule: Q04DX003 (ip), vehicle: other 101 % of control | dose: 200.0 mg/kg/injection, schedule: Q01DX001 (ip), vehicle: other 96 % of control | [11] 92 % of control | dose: 200.0 mg/kg/injection, schedule: Q04DX003 (ip), vehicle: other 95 % of control | dose: 400.0 mg/kg/injection, schedule: Q01DX001 (ip), vehicle: other 98 % of control | dose: 400.0 mg/kg/injection, schedule: Q04DX003 (ip), vehicle: other 93 % of control

CCOC=Nc1c(/C=C(/O)C(=O)OCC)c[n+]([O-])nc1OC
inactive: dose: 25.0 mg/kg/injection, schedule: Q04DX002 (ip), vehicle: saline with Tween-80 92 % of control | dose: 25.0 mg/kg/injection, schedule: Q04DX002 (ip), vehicle: saline 92 % of control | dose: 50.0 mg/kg/injection, schedule: Q04DX002 (ip), vehicle: saline with Tween-80 96 % of control | dose: 50.0 mg/kg/injection, schedule: Q04DX002 (ip), vehicle: saline 96 % of control | [15] 89 % of control | dose: 100.0 mg/kg/injection, schedule: Q04DX002 (ip), vehicle: saline 96 % of control

CCS(=O)(=O)N1CCC(C)CC1
inactive: [15] 96 % of control | [16] 101 % of control | [17] 103 % of control

CC1=N/C(=C/c2ccccc2Cl)C(=O)O1
inactive: [8] 93 % of control | [9] 90 % of control | [10] 95 % of control | [11] 93 % of control | [12] 98 % of control

CC(=O)Nc1ncccc1C
inactive: dose: 5.0 mg/kg/injection, schedule: Q01DX001 (ip), vehicle: saline 94 % of control | dose: 10.0 mg/kg/injection, schedule: Q01DX001 (ip), vehicle: saline 96 % of control | dose: 20.0 mg/kg/injection, schedule: Q01DX001 (ip), vehicle: saline 101 % of control | dose: 40.0 mg/kg/injection, schedule: Q01DX001 (ip), vehicle: saline 100 % of control

Cc1ccc(C(=O)OCC2OC(Cl)CC2OC(=O)c2ccc(C)cc2)cc1 (stereo unspecified)
inactive: [4] 107 % of control | [1] 102 % of control | [2] 91 % of control | [3] 98 % of control

CCCCCCCCCCCCCCCC(=O)OCc1cc(=O)c(O)co1
inactive: [9] 95 % of control | [10] 91 % of control | [11] 101 % of control | [12] 94 % of control | [13] 97 % of control | [14] 94 % of control

Nc1cc(Cl)cc2cc(Br)cnc12
inactive: [10] 101 % of control | [12] 98 % of control | [14] 95 % of control

COc1ccc(OC)c(NC(=O)c2ccc(Cl)c(Cl)c2)c1
inactive: dose: 100.0 mg/kg/injection, schedule: Q01DX001 (ip), vehicle: saline with Tween-80 106 % of control | dose: 100.0 mg/kg/injection, schedule: Q01DX009 (ip), vehicle: saline with Tween-80 93 % of control and 98 % of control | [15] 97 % of control and 99 % of control | [5] 105 % of control | dose: 200.0 mg/kg/injection, schedule: Q01DX001 (ip), vehicle: saline with Tween-80 101 % of control | dose: 200.0 mg/kg/injection, schedule: Q01DX009 (ip), vehicle: saline with Tween-80 97 % of control and 102 % of control | [16] 108 % of control and 89 % of control | [6] 108 % of control | dose: 400.0 mg/kg/injection, schedule: Q01DX001 (ip), vehicle: saline with Tween-80 108 % of control | dose: 400.0 mg/kg/injection, schedule: Q01DX009 (ip), vehicle: saline with Tween-80 111 % of control | [17] 104 % of control and 91 % of control | [7] 89 % of control

CCC(O)C1CCCCN1 (stereo unspecified)
inactive: [5] 91 % of control | [6] 104 % of control

CC(CO)(CO)N=Cc1ccc(N(CCCl)CCCl)cc1
inactive: dose: 100.0 mg/kg/injection, schedule: Q01DX001 (ip), vehicle: carboxymethylcellulose (CMC) 106 % of control | dose: 200.0 mg/kg/injection, schedule: Q01DX001 (ip), vehicle: carboxymethylcellulose (CMC) 97 % of control | dose: 400.0 mg/kg/injection, schedule: Q01DX001 (ip), vehicle: carboxymethylcellulose (CMC) 101 % of control

COc1cc2c(cc1OC)C1(CCBr)C3CC4C(=CCOC5CC(=O)N2C1C54)CN3C(=O)Cc1ccccc1 (stereo unspecified)
inactive: dose: 75.0 mg/kg/injection, schedule: Q01DX001 (ip), vehicle: saline 107 % of control

CC(C)(C)C1(C)CNC(=O)O1 (stereo unspecified)
inactive: dose: 6.0 mg/kg/injection, schedule: Q01DX009 (ip), vehicle: Klucel (hydroxypropylcellulose) (HPC) 100 % of control | dose: 12.0 mg/kg/injection, schedule: Q01DX009 (ip), vehicle: Klucel (hydroxypropylcellulose) (HPC) 104 % of control | dose: 25.0 mg/kg/injection, schedule: Q01DX009 (ip), vehicle: Klucel (hydroxypropylcellulose) (HPC) 102 % of control | dose: 25.0 mg/kg/injection, schedule: Q04DX003 (ip), vehicle: Klucel (hydroxypropylcellulose) (HPC) 102 % of control | [8] 101 % of control | dose: 50.0 mg/kg/injection, schedule: Q04DX003 (ip), vehicle: Klucel (hydroxypropylcellulose) (HPC) 102 % of control | [9] 101 % of control | [10] 95 % of control and 89 % of control

Cc1cc(C)c(CC(C)(CO)CO)cc1CC(C)(CO)CO
inactive: [9] 93 % of control | [11] 87 % of control | dose: 300.0 mg/kg/injection, schedule: Q01DX009 (ip), vehicle: Klucel (hydroxypropylcellulose) (HPC) 106 % of control

CCCCCCCCCCCCCCCCOC(=O)C[n+]1ccc(C(N)=O)cc1
inactive: dose: 100.0 mg/kg/injection, schedule: Q04DX003 (ip), vehicle: acetone 97 % of control | dose: 200.0 mg/kg/injection, schedule: Q04DX003 (ip), vehicle: acetone 90 % of control
